For one assay, the system named is NA transporter. Put plainly: Inhibition of noradrenaline uptake in rat brain synaptosomes. The assay is classed as biochemical. To be noted: Table III.
The target of a further assay is T1, 5-HT transporter (Rattus norvegicus, UniProt P31652).
T1 construct: synaptosomes of rat brain areas are freshly isolated; from tissue; host or cells: rat brain synaptosomes (P2 fraction) from marrow and pons
Put plainly: Inhibition of 5-HT uptake in rat brain synaptosomes. The class given is biochemical. To be noted: read-out: Uptake 5-HT, % inhibition; Table III; rat, 1 μM.

In assay [1] the test system is batrachotoxin (BTX) binding site of the sodium channel. Put plainly: Affinity to the batrachotoxin (BTX) binding site of the sodium channel. To be noted: Table III; rat cerebrocortex synaptosomes; test concentration not given.

T1 sequence (P31652 whole entry): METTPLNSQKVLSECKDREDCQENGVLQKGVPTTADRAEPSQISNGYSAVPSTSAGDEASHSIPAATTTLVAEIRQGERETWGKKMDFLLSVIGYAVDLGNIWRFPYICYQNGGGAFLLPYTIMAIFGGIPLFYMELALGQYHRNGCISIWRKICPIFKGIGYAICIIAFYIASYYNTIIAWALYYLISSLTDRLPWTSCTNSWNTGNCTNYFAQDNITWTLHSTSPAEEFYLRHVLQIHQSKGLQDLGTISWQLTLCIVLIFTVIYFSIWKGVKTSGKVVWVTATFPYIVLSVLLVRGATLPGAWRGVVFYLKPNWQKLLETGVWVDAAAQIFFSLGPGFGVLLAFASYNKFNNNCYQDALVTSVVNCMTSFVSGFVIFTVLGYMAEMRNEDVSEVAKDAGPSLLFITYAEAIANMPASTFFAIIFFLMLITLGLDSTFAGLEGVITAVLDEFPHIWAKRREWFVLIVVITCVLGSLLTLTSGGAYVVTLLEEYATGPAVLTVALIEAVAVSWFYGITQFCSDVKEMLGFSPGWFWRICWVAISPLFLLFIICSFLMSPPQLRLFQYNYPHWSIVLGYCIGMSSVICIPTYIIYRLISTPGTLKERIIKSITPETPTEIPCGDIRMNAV

`CN(C)c1cccc(C(=O)N2CCC3(CC2)NC(Cc2ccccc2)C(=O)N3Cc2ccccc2)c1` (stereo not drawn) [Example 99, 1,3-Dibenzyl-8-(3-dimethylaminobenzoyl)-1,4,8-triazaspiro[4,5]decan-2-one]: in the assay with NA transporter, the “Uptake (NA), rat, 10 μM, % inhibition” value was determined as 42%. In addition, the inhibition at 1 µM at 5-HT transporter amounted to 79%. This molecule also returned a BTX inhibition in assay [1] of 66.
As for `C#CCN1C(=O)C(CC(C)C)NC12CCN(C(=O)COc1ccc(Cl)cc1)CC2` (stereo not drawn) [Example 104, 8-[2-(4-Chlorophenoxy)acetyl]-3-isobutyl-1-prop-2-ynyl-1,4,8-triazaspiro[4,5]decan-2-one], the “Uptake (NA), rat, 10 μM, % inhibition” value with NA transporter was 36%. On 5-HT transporter, the inhibition at 1 µM is 48%. The molecule further gave a BTX inhibition in assay [1] of 41.
The like results for `CC(C)CC1NC2(CCN(C(=O)c3cccc(N(C)C)c3)CC2)N(Cc2ccccc2C#N)C1=O` (stereo not drawn) [Example 111, 2-[8-(3-Dimethylaminobenzoyl)-3-isobutyl-2-oxo-1,4,8-triazaspiro[4,5]dec-1-ylmethyl]benzonitrile] were, in that order, 38%, 58% and 42.
Consider `CC(C)CC1NC2(CCN(C(=O)c3cccnc3Cl)CC2)N(Cc2ccc(F)cc2)C1=O` (stereo not drawn) [Example 118, 8-(2-Chloropyridin-3-carbonyl)-1-(4-fluorobenzyl)-3-isobutyl-1,4,8-triazaspiro[4,5]decan-2-one], for which the “Uptake (NA), rat, 10 μM, % inhibition” value in the assay with NA transporter amounted to 30%. In addition, the inhibition at 1 µM at 5-HT transporter turned out to be 38%. The same molecule gave a BTX inhibition in assay [1] of 44.
`CN1C(=O)C(Cc2ccccc2)NC12CCN(C(=O)COCc1ccccc1)CC2` (stereo not drawn) [Example 141, 3-Benzyl-8-(2-benzyloxyacetyl)-1-methyl-1,4,8-triazaspiro[4,5]decan-2-one]: the “Uptake (NA), rat, 10 μM, % inhibition” value in the assay with NA transporter is listed as 36%. In assay [1], this molecule had a BTX inhibition of 45.
Consider `CCOC(=O)CN1C(=O)C(Cc2ccccc2)NC12CCN(C(=O)c1ccc(NC(C)=O)cc1)CC2` (stereo not drawn) [Example 256, Ethyl [8-(4-acetylaminobenzoyl)-3-benzyl-2-oxo-1,4,8-triazaspiro[4,5]dec-1-yl]acetate], for which, in the assay on NA transporter, the “Uptake (NA), rat, 10 μM, % inhibition” value is given as 57%. In addition, at 5-HT transporter, the inhibition at 1 µM worked out at 94%. The same molecule had a BTX inhibition in assay [1] of 48.
In the case of `CC(C)CC1NC2(CCN(C(=O)c3ccc4c(c3)OCO4)CC2)N(Cc2c(Cl)cccc2Cl)C1=O` (stereo not drawn) [Example 264, 8-(Benzo[1,3]dioxole-5-carbonyl)-1-(2,6-dichlorobenzyl)-3-isobutyl-1,4,8-triazaspiro[4,5]decan-2-one], the “Uptake (NA), rat, 10 μM, % inhibition” value in the assay with NA transporter is listed as 36%. Also, the BTX inhibition in assay [1] came out at 63.
On to `C=CCN1C(=O)C(C(C)C)NC12CCN(C(=O)c1ccc(-c3ccccc3)cc1)CC2` (stereo not drawn) [Example 265, 1-Allyl-8-(biphenyl-4-carbonyl)-3-isopropyl-1,4,8-triazaspiro[4,5]decan-2-one], for which, in the assay on NA transporter, the “Uptake (NA), rat, 10 μM, % inhibition” value was found to be 32%. In assay [1], this molecule returned a BTX inhibition of 34.
Taken in the same sequence, the figures for `C=CCN1C(=O)C(CCSC)NC12CCN(C(=O)c1cccnc1SC)CC2` (stereo not drawn) [Example 290, 1-Allyl-3-(2-methylsulfanylethyl)-8-(2-methylsulfanylpyridin-3-carbonyl)-1,4,8-triazaspiro[4,5]decan-2-one] were 31% and 30.
Taken in the same sequence, the figures for `Cc1cc(C(=O)N2CCC3(CC2)NC(CC(C)C)C(=O)N3Cc2c(Cl)cccc2Cl)c(C)o1` (stereo not drawn) [Example 295, 1-(2,6-Dichlorobenzyl)-8-(2,5-dimethylfuran-3-carbonyl)-3-isobutyl-1,4,8-triazaspiro[4,5]decan-2-one] were 36% and 63.
Taken in the same sequence, the figures for `CCOC(=O)CN1C(=O)C(CCSC)NC12CCN(C(=O)c1ccc(C(C)(C)C)cc1)CC2` (stereo not drawn) [Example 297, Ethyl [8-(4-tert-butylbenzoyl)-3-(2-methylsulfanylethyl)-2-oxo-1,4,8-triazaspiro[4,5]dec-1-yl]acetate] were 32% and 36.

(Values after patent publication US7951815B2, “Substituted 1,4,8-triazaspiro [4,5]decan-2-one compounds” (Gruenenthal GmbH, priority 2004, dated 2011).)
